{
  "source": "PubChem BioAssay AID1259409",
  "about": "(Chemical Carcinogenesis Research Information System (CCRIS), 2018)",
  "origin": "cited, not measured here",
  "system": "rodent chemically induced tumor inhibition, incidence and multiplicity",
  "assay": "CCRIS tumor inhibitor studies",
  "data": [
    {"smiles": "CC(=O)Oc1c(C)c(C)c2c(c1C)CC[C@@](C)(CCC[C@H](C)CCC[C@H](C)CCCC(C)C)O2", "values": [
      {"measurement": "tumour outcome (control, treated, inhibition, significance)", "setting": "Carcinogen: 7,12-DIMETHYLBENZ[A]ANTHRACENE, 57-97-6, Dose [Inhibitor]: 0, 0.2% IN DIET BEGINNING 1 WK PRIOR TO CARCINOGEN DOSE AND CONTINUING FOR 12 WK (STUDY DURATION: 13 WK), Route [Inhibitor]: ORAL, Species: RAT, Strain/Sex: SPRAGUE-DAWLEY/FEMALE, Target Tissue: Type of Lesion: MAMMARY GLAND: TUMORS, Dose [Carcinogen]: 10 MG IN 1 ML CORN OIL ONCE, Promoter: NONE USED", "value": "100%, 80%, 20%, p<0.05"},
      {"measurement": "tumour outcome (control, treated, inhibition, significance)", "setting": "Carcinogen: 7,12-DIMETHYLBENZ[A]ANTHRACENE, 57-97-6, Dose [Inhibitor]: 0, 10 UMOL 1/WK 5 MIN PRIOR TO EACH PROMOTER DOSE BEGINNING 2 WK POST CARCINOGEN DOSE AND CONTINUING FOR 29 WK (STUDY DU, Route [Inhibitor]: DERMAL, Species: MOUSE, Strain/Sex: SENCAR/FEMALE, Target Tissue: Type of Lesion: SKIN: PAPILLOMA, Dose [Carcinogen]: 25 NMOL ONCE, Promoter: CHRYSAROBIN, 491-58-7", "value": "100%, 93%, 7%, not significant"},
      {"measurement": "tumour outcome (control, treated, inhibition, significance)", "setting": "Carcinogen: 7,12-DIMETHYLBENZ[A]ANTHRACENE, 57-97-6, Dose [Inhibitor]: 0, 40 UMOL 1/WK 5 MIN PRIOR TO EACH PROMOTER DOSE BEGINNING 2 WK PRIOR TO CARCINOGEN DOSE AND CONTINUING FOR 29 WK (STUD, Route [Inhibitor]: DERMAL, Species: MOUSE, Strain/Sex: SENCAR/FEMALE, Target Tissue: Type of Lesion: SKIN: PAPILLOMA, Dose [Carcinogen]: 25 NMOL ONCE, Promoter: CHRYSAROBIN, 491-58-7", "value": "100%, 68%, 32%, not calculated"},
      {"measurement": "tumour outcome (control, treated, inhibition, significance)", "setting": "Carcinogen: ETHYLNITROSOUREA, 759-73-9, Dose [Inhibitor]: 0, 600 MG/KG IN 1:10 (VOLUME: VOLUME) SUNFLOWER OIL IN DIET 5 D/WK FOR 18 MO (STUDY DURATION: 18 MO), Route [Inhibitor]: ORAL, Species: RAT, Strain/Sex: ALBINO/MALE,FEMALE, Target Tissue: Type of Lesion: BRAIN: GLIOMA OR ASTROCYTOMA, Dose [Carcinogen]: 7.5 MG/KG IN SALINE BY INTRAVENOUS INJECTION ONCE 21 D AFTER CONCEPTION", "value": "22/54 (41%), 19/50 (38%), 7%, not calculated"},
      {"measurement": "tumour outcome (control, treated, inhibition, significance)", "setting": "Carcinogen: ETHYLNITROSOUREA, 759-73-9, Dose [Inhibitor]: 0, 600 MG/KG IN 1:10 (VOLUME: VOLUME) SUNFLOWER OIL IN DIET 5 D/WK FOR 18 MO (STUDY DURATION: 18 MO), Route [Inhibitor]: ORAL, Species: RAT, Strain/Sex: ALBINO/MALE,FEMALE, Target Tissue: Type of Lesion: NERVOUS SYSTEM: SCHWANNOMA, Dose [Carcinogen]: 7.5 MG/KG IN SALINE BY INTRAVENOUS INJECTION ONCE 21 D AFTER CONCEPTION", "value": "7/54 (13%), 5/50 (10%) 23%, not calculated"},
      {"measurement": "tumour outcome (control, treated, inhibition, significance)", "setting": "Carcinogen: ETHYLNITROSOUREA, 759-73-9, Dose [Inhibitor]: 0, 600 MG/KG IN 1:10 (VOLUME: VOLUME) SUNFLOWER OIL IN DIET 5 D/WK FOR 18 MO (STUDY DURATION: 18 MO), Route [Inhibitor]: ORAL, Species: RAT, Strain/Sex: ALBINO/MALE,FEMALE, Target Tissue: Type of Lesion: SPINAL CORD: TUMOR, Dose [Carcinogen]: 7.5 MG/KG IN SALINE BY INTRAVENOUS INJECTION ONCE 21 D AFTER CONCEPTION", "value": "3/54 (6%), 6/50 (12%), -100%, not calculated"}
    ]},
    {"smiles": "O=C(/C=C/c1ccc(O)cc1)c1ccc(O)cc1O", "values": [
      {"measurement": "tumour outcome (control, treated, inhibition, significance)", "setting": "Carcinogen: 7,12-DIMETHYLBENZ[A]ANTHRACENE, 57-97-6, Dose [Inhibitor]: 0, 0.4 UMOL 2/WK FOR 18 WK BEGINNING 10 D POST CARCINOGEN DOSE (STUDY DURATION: 20 WK), Route [Inhibitor]: DERMAL, Species: MOUSE, Strain/Sex: CD-1/FEMALE, Target Tissue: Type of Lesion: SKIN: PAPILLOMA, Dose [Carcinogen]: 200 NMOL ONCE, Promoter: 12-O-TETRADECANOYLPHORBOL-13-ACETATE, 16561-29-8", "value": "85%, 90%, -6%, not significant"},
      {"measurement": "tumour outcome (control, treated, inhibition, significance)", "setting": "Carcinogen: 7,12-DIMETHYLBENZ[A]ANTHRACENE, 57-97-6, Dose [Inhibitor]: 0, 10 UMOL 2/WK FOR 18 WK BEGINNING 10 D POST CARCINOGEN DOSE (STUDY DURATION: 20 WK), Route [Inhibitor]: DERMAL, Species: MOUSE, Strain/Sex: CD-1/FEMALE, Target Tissue: Type of Lesion: SKIN: PAPILLOMA, Dose [Carcinogen]: 200 NMOL ONCE, Promoter: 12-O-TETRADECANOYLPHORBOL-13-ACETATE, 16561-29-8", "value": "85%, 50%, 41%, p<0.05"},
      {"measurement": "tumour outcome (control, treated, inhibition, significance)", "setting": "Carcinogen: 7,12-DIMETHYLBENZ[A]ANTHRACENE, 57-97-6, Dose [Inhibitor]: 0, 10 UMOL 2/WK FOR 21 WK BEGINNING 10 D POST CARCINOGEN DOSE (STUDY DURATION: 23 WK), Route [Inhibitor]: DERMAL, Species: MOUSE, Strain/Sex: CD-1/FEMALE, Target Tissue: Type of Lesion: SKIN: PAPILLOMA, Dose [Carcinogen]: 200 NMOL ONCE, Promoter: 12-O-TETRADECANOYLPHORBOL-13-ACETATE, 16561-29-8", "value": "90%, 0%, 100%, p<0.05"},
      {"measurement": "tumour outcome (control, treated, inhibition, significance)", "setting": "Carcinogen: 7,12-DIMETHYLBENZ[A]ANTHRACENE, 57-97-6, Dose [Inhibitor]: 0, 15 UMOL 2/WK FOR 18 WK BEGINNING 10 D POST CARCINOGEN DOSE (STUDY DURATION: 20 WK), Route [Inhibitor]: DERMAL, Species: MOUSE, Strain/Sex: CD-1/FEMALE, Target Tissue: Type of Lesion: SKIN: PAPILLOMA, Dose [Carcinogen]: 200 NMOL ONCE, Promoter: 12-O-TETRADECANOYLPHORBOL-13-ACETATE, 16561-29-8", "value": "85%, 5%, 95%, p<0.05"}
    ]},
    {"smiles": "O=c1[nH]c(=O)c2[nH]cnc2[nH]1", "values": [
      {"measurement": "tumour outcome (control, treated, inhibition, significance)", "setting": "Carcinogen: URETHANE, 51-79-6, Dose [Inhibitor]: 0.05 UMOL/G BW GIVEN AT 6 HR INTERVALS FOR 36 HR AFTER CARCINOGEN TREATMENT (STUDY DURATION: 5 MO), Route [Inhibitor]: INTRAPERITONEAL, Species: MOUSE, Strain/Sex: ICR/FEMALE, Target Tissue: Type of Lesion: LUNG: PAPILLARY ADENOMA, Dose [Carcinogen]: 0.1 MG/G BW ONCE, Promoter: NONE USED", "value": "31/59 (53%), 26/40 (65%), -23%, not significant"}
    ]},
    {"smiles": "C#CCCCc1ccccc1", "values": [
      {"measurement": "tumour outcome (control, treated, inhibition, significance)", "setting": "Carcinogen: 4-(METHYLNITROSAMINO)-1-(3-PYRIDYL)-1-BUTANONE, 64091-91-4, Dose [Inhibitor]: 0, 5 UMOL IN 0.1 ML CORN OIL ONCE 2 HR PRIOR TO CARCINOGEN DOSE (STUDY DURATION: 16 WK), Route [Inhibitor]: GAVAGE, Species: MOUSE, Strain/Sex: STRAIN-A/FEMALE, Target Tissue: Type of Lesion: LUNG: ADENOMA, Dose [Carcinogen]: 10 UMOL IN 0.1 ML SALINE ONCE, Promoter: NONE USED", "value": "100%, 25%, 75%, p<0.01"}
    ]},
    {"smiles": "ClC1C(Cl)C(Cl)C(Cl)C(Cl)C1Cl", "note": "(stereo not drawn)", "values": [
      {"measurement": "tumour outcome (control, treated, inhibition, significance)", "setting": "Carcinogen: DIETHYLNITROSAMINE, 55-18-5, Dose [Inhibitor]: 0, 250 PPM IN DIET FOR 24 WK BEGINNING AT 28 D OF AGE (STUDY DURATION: 26 WK), Route [Inhibitor]: ORAL, Species: MOUSE, Strain/Sex: B6C3F1/MALE, Target Tissue: Type of Lesion: LIVER: ADENOMA, Dose [Carcinogen]: 5 UG/G BW IN 0.1 ML SALINE ONCE AT 15 D OF AGE, Promoter: NONE USED", "value": "15/15 (100%), 15/15 (100%), 0%, not significant"},
      {"measurement": "tumour outcome (control, treated, inhibition, significance)", "setting": "Dose [Inhibitor]: 0, 100 PPM IN DIET ADMINISTERED CONCURRENTLY WITH CARCINOGEN FOR 1 WK (STUDY DURATION: 82 WK), Route [Inhibitor]: ORAL, Species: RAT, Strain/Sex: BUFFALO/FEMALE, Target Tissue: Type of Lesion: LIVER: TUMOR, Dose [Carcinogen]: 1 PPM IN DIET FOR 1 WK, Promoter: NONE USED", "value": "6/19 (32%), 1/20 (5%), 84%, not calculated"},
      {"measurement": "tumour outcome (control, treated, inhibition, significance)", "setting": "Dose [Inhibitor]: 0, 100 PPM IN DIET ADMINISTERED CONCURRENTLY WITH CARCINOGEN FOR 3 WK (STUDY DURATION: 82 WK), Route [Inhibitor]: ORAL, Species: RAT, Strain/Sex: BUFFALO/FEMALE, Target Tissue: Type of Lesion: LIVER: TUMOR, Dose [Carcinogen]: 1 PPM IN DIET FOR 3 WK, Promoter: NONE USED", "value": "6/19 (32%), 0/23 (0%), 100%, not calculated"},
      {"measurement": "tumour outcome (control, treated, inhibition, significance)", "setting": "Dose [Inhibitor]: 0, 100 PPM IN DIET ADMINISTERED CONCURRENTLY WITH CARCINOGEN FOR 5 WK (STUDY DURATION: 82 WK), Route [Inhibitor]: ORAL, Species: RAT, Strain/Sex: BUFFALO/FEMALE, Target Tissue: Type of Lesion: LIVER: TUMOR, Dose [Carcinogen]: 1 PPM IN DIET FOR 5 WK, Promoter: NONE USED", "value": "6/19 (32%), 0/17 (0%), 100%, not calculated"},
      {"measurement": "tumour outcome (control, treated, inhibition, significance)", "setting": "Dose [Inhibitor]: 0, 100 PPM IN DIET ADMINISTERED CONCURRENTLY WITH CARCINOGEN FOR 10 WK (STUDY DURATION: 82 WK), Route [Inhibitor]: ORAL, Species: RAT, Strain/Sex: BUFFALO/FEMALE, Target Tissue: Type of Lesion: LIVER: TUMOR, Dose [Carcinogen]: 1 PPM IN DIET FOR 10 WK, Promoter: NONE USED", "value": "6/19 (32%), 0/22 (0%), 100%, not calculated"},
      {"measurement": "tumour outcome (control, treated, inhibition, significance)", "setting": "Dose [Inhibitor]: 0, 100 PPM IN DIET ADMINISTERED CONCURRENTLY WITH CARCINOGEN FOR 15 WK (STUDY DURATION: 82 WK), Route [Inhibitor]: ORAL, Species: RAT, Strain/Sex: BUFFALO/FEMALE, Target Tissue: Type of Lesion: LIVER: TUMOR, Dose [Carcinogen]: 1 PPM IN DIET FOR 15 WK, Promoter: NONE USED", "value": "6/19 (32%), 0/13 (0%), 100%, not calculated"}
    ]}
  ]
}
